In series [1] the test system is ovarian cancer with confirmed BRCA-1 mutations. Particulars: ovarian cancer patients with confirmed BRCA-1 mutations, monotherapy; cited from earlier work.
Series [2] deals with PARP-1 FL (Homo sapiens (Human), UniProt P09874). In words: Fluorescence polarization probe displacement assay, PARP-1. It is filed as binding. Particulars: for Kd: compound P3 as the probe, 100 nM PARP-1; for DC50: half maximal displacement concentration. In general terms: In fluorescence polarisation assays a small probe gives low polarisation when free and higher when bound to something large.
PARP-1 FL, sequence (P09874 whole entry): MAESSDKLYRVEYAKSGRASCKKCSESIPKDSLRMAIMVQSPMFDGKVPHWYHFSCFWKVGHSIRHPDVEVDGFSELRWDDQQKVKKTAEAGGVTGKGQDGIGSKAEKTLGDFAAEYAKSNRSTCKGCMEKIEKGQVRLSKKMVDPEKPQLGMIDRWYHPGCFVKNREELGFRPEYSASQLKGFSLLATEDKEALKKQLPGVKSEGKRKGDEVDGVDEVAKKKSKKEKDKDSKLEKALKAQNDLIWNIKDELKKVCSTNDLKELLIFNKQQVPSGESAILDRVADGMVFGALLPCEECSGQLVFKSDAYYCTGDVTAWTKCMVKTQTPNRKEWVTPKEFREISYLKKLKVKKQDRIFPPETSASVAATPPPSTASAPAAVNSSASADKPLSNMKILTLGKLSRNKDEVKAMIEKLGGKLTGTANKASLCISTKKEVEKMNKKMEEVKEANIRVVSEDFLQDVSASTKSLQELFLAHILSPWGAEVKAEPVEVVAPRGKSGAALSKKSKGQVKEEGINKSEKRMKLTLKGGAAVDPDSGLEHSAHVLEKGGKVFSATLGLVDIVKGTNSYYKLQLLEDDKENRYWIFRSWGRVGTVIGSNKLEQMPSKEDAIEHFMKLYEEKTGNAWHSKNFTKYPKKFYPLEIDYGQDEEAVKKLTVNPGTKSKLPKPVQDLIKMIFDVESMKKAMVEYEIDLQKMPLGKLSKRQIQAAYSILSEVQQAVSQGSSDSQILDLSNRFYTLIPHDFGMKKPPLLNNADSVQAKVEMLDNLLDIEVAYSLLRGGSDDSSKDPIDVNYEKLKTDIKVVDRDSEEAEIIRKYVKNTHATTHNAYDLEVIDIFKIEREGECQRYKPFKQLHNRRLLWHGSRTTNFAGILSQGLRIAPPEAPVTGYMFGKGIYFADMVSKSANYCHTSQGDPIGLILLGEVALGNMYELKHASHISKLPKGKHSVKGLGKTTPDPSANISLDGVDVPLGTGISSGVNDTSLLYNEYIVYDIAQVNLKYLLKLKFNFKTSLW
Procedure: (§1) Affinity evaluation of the tested compounds and their selectivity with respect to the different PARP isoforms of interest was assessed in a displacement assay.
(§2) The polarization signal can be measured, e.g., by a plate reader such as the Saphire2 (Tecan). The displacement ability of the test compound is in correlation with the compound affinity for the NAD pocket of the enzyme.
(§3) The assay performances were then evaluated (Z′ factor) as well as the displacement of the probe by its scaffold and known commercially available PARP inhibitors. In all of the experiments, the polarization signal was measured using a Saphire2 plate reader (Tecan). Data analysis was performed using Dynafit software. In particular, titration data were fitted to the following equilibria: Enzyme+probe <==> Complex Enzyme-probe, while displacement data were fitted to the following equilibria: Enzyme+probe <==> Complex Enzyme-probe, Enzyme+Compound <==> Complex Enzyme-Compound, whereby binding of probe and compound on the enzyme are mutually exclusive (pure competitive mechanism). Displacement data were also fitted using Excell spreadsheet (Microsoft Inc. Seattle, USA) to a four parameter logistic model (4PL), or Hill-Slope model to calculate DC50s where the DC50 value represents the compound concentration at which the polarization signal is diminished by 50% compared to untreated controls.
(§4) KD values, are the average of three independent experiments.

Series [3] deals with PARP-2 FL (Homo sapiens (Human), UniProt Q9UGN5). Kind of series: Fluorescence polarization probe displacement assay, PARP-2. The following applies: half maximal displacement concentration; read-out: PARP-2 DC50. It counts as binding.
PARP-2 FL, sequence (Q9UGN5 whole entry): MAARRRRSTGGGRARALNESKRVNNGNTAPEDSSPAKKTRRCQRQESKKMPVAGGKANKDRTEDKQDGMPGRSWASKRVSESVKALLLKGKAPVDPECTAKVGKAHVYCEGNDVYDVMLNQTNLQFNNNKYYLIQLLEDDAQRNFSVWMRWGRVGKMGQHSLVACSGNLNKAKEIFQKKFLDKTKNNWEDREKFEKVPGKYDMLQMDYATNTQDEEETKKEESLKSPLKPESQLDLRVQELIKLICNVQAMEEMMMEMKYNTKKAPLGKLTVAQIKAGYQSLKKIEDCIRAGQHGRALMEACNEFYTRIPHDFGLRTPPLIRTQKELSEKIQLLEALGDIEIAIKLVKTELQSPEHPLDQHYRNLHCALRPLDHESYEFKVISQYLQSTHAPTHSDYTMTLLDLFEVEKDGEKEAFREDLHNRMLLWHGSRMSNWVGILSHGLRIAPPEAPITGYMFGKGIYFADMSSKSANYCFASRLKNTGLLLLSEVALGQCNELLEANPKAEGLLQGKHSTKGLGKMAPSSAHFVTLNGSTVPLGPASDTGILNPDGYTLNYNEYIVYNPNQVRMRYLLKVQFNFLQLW
Procedure: as §1, §2, §3, §4
For series [4], the target named is PARP-3 FL (Homo sapiens (Human), UniProt Q9Y6F1). In words: Fluorescence polarization probe displacement assay, PARP-3. It is filed as binding. Particulars: half maximal displacement concentration.
PARP-3 FL, sequence (Q9Y6F1 whole entry): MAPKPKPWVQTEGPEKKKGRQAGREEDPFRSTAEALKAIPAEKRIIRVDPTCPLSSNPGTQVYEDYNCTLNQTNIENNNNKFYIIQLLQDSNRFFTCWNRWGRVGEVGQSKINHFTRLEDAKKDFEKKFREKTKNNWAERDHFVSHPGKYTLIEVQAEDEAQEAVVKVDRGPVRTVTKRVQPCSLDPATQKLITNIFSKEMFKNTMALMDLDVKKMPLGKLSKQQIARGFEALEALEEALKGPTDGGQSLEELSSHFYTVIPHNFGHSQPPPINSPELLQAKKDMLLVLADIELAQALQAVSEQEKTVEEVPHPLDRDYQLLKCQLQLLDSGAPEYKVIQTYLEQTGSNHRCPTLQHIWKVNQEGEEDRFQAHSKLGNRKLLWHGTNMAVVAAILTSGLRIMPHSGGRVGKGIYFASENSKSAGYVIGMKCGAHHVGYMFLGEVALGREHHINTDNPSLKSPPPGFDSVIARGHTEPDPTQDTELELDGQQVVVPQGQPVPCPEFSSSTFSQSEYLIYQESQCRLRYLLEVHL
Procedure: as §1, §2, §3, §4
A short description of series [5]: Pharmacokinetics and oral bioavailability in the mouse. The following applies: for C-max (oral): 10 mg/kg single oral dose, mean value; for F on AUC / Vd / clearance / AUC / half-life: 10 mg/kg; for F on AUC: oral vs IV dose-normalized AUC; for Vd / clearance / AUC / half-life: male, Balb Nu/Nu, plasma; for Vd / clearance: iv; for AUC / half-life: po.
Procedure: The compounds were formulated in 10% tween 80/dextrose for intravenous bolus administration while oral administrations were performed using the compounds formulated in 0.5% methylcellulose. A single administration at the dose of 10 mg/kg was given and three male animals for each route were used. […] Plasma samples were prepared by plasma proteins precipitation adding 200 μL of methanol to 10 μL of plasma in a 96 well plate. […] The supernatant was considered as final extract and injected onto the LC-MS-MS system (HPLC system: Hewlett Packard 1100 series using Atlantis HILIC Silica 50*2.1 mm 5.0 μm analytical column; MS instrument: Perkin Elmer SCIEX API 2000 and ionization performed with Turbo Ion Spray in positive ion mode). Lower limit of quantification is 5.0 ng/mL, upper limit of quantification is 10000 ng/mL. […] Non-compartmental method (linear trapezoidal rule and linear regression analysis of natural log-transformed plasma concentrations vs. time data) was used. After intravenous dosing, C0 was set equal to C0.083 Absolute bioavailability (F) was calculated from the ratio of average oral to IV (intravenous) dose-normalized plasma AUC (area under curve) values.
For series [6], the system named is PAR formation in HeLa cells. In words: Cellular PAR assay: inhibition of hydrogen peroxide induced PAR formation. The following applies: Homo sapiens, read-out: PAR assay IC50.
Procedure: Compounds potencies were evaluated by measuring the inhibition of poly (ADP-ribose) (PAR) chains formation as a marker for PARP-1 inhibition.
Cellular activity of PARP-1 inhibitors was assessed by measuring the inhibition of the hydrogen peroxide induced PAR formation in HeLa cells (ECACC). Cellular PAR levels were measured by immunocytochemistry, and quantified using an ArrayScan vTi instrument (Cellomics Thermo Scientific).
Test compounds were then added at the required concentration for 30′. […] Concentration curves were prepared in MEM/10% FCS from compound stocks in DMSO, and final DMSO concentration was 0.002% (v/v). Duplicate wells for each concentration point were prepared with a typical highest compound concentration of 20 μM and serial dilution 1:3. […] Non-specific binding sites were blocked by incubating wells for 30 min in PBS containing 5% (w/v) FBS 0.05% tween20. […] After washing further 3 times in PBS, cellular PAR immunoreactivity was assessed using the ArrayScan vTi instrument, with a Zeiss 10×0.5 N.A. objective, and applying the Cytotoxicity.V3 algorithm (Cellomics/Thermo Fisher) with a XF100 filter. At least 10 fields, corresponding to at least 900 cells, were read for each well.
The following formula is used: IC50=Bottom+(Top-Bottom)/(1+10^((LogEC50−X))); X is the logarithm of concentration. IC50 is the response; IC50 starts at Bottom and goes to Top with a sigmoid shape.
In series [7] the test system is Capan-1 human pancreatic cancer tumors. In words: In vivo efficacy, single agent, Capan-1 BRCA-2 mutated mouse model.
Procedure: Fragments of Capan-1 human pancreatic cancer tumors were implanted subcutaneously. Mice bearing a palpable tumor (100-200 mm^3) were selected and randomized into control and treated groups. Each group included seven animals. The treatment started one day after randomization. Compound of formula (I) was administered by oral route as a methocel suspension at the indicated doses and times. Tumor dimension was measured regularly by calipers during the experiments and tumor mass was calculated as described in Simeoni M. et al., Cancer Res 64, 1094-1101 (2004).
[8] abbreviates: 100 mg/kg oral, days 1-14 daily.
Setting [9] is: 100 mg/kg oral, days 1-6 twice a day.
[10] abbreviates: 100 mg/kg oral, days 1-15 daily.

On to `O=C(c1cc(Cc2n[nH]c(=O)c3ccccc23)ccc1F)N1CCN(C(=O)C2CC2)CC1` [AZD2281], for which the partial responses in series [1] is 4 out of 10.
`NC(=O)c1cccc2c1C(=O)N(C1CCN([C@H]3CC[C@H](CO)CC3)CC1)C2` [Compound 4, 2-{1-[Trans-4-(hydroxymethyl)cyclohexyl]piperidin-4-yl}-3-oxo-2,3-dihydro-1H-isoindole-4-carboxamide]: in series [2], the Kd – broadly, the equilibrium constant for the complex coming apart – came out at 20 nM and the DC50 was less than 250 nM. Also, the DC50 in series [3] was greater than 10 µM. In series [4], the DC50 was determined as 4900 nM. Moreover, in series [5], the “C-max (oral)” value came out at 0.4 µM, the “F on AUC” value is given as 55%, the Vd was 5.95 L/kg and the clearance was 135 mL/min/kg. For the same molecule, in series [5], the AUC (commonly the area under the concentration-time curve, a measure of exposure) is 1.3 µM·h and the half-life (in general, the time needed for the level to fall by half in the phase considered) is 85.2 min. The IC50 – broadly, the concentration that inhibits the measured activity by half – in series [6] stood at 90 nM.
As for `NC(=O)c1cccc2c1C(=O)N(C1CCN(C3CCC(F)(F)CC3)CC1)C2` [Compound 7, 2-[1-(4,4-Difluorocyclohexyl)-piperidin-4-yl]-3-oxo-2,3-dihydro-1H-isoindole-4-carboxylic acid amide], the DC50 in series [4] worked out at 3540 nM. For the same molecule, in series [7] (80 mg/kg oral, days 1-8 daily), the “Max TGI (%)” value was determined as 47% and the “Toxicity (body weight reduction, mice out of 7)” value is 0/7.
Consider `NC(=O)c1cccc2c1C(=O)N(C1CCN(Cc3ccc4[nH]ccc4c3)CC1)C2` [Compound 29, 2-[1-(1H-indol-5-ylmethyl)piperidin-4-yl]-3-oxo-2,3-dihydro-1H-isoindole-4-carboxamide], for which, in series [7] (setting [8]), the “Max TGI (%)” value is listed as 38% and the “Toxicity (body weight reduction, mice out of 7)” value is given as 0/7.
In series [2], `CC(C)n1cc(CN2CCC(N3Cc4cccc(C(N)=O)c4C3=O)CC2)c2ccccc21` [Compound 32, 3-oxo-2-(1-{[1-(propan-2-yl)-1H-indol-3-yl]methyl}piperidin-4-yl)-2,3-dihydro-1H-isoindole-4-carboxamide] registered a Kd of 40 nM and a DC50 of less than 250 nM. Further, the DC50 in series [3] was greater than 10 µM. In series [4], this molecule returned a DC50 of 270 nM. For the same molecule, in series [7] (setting [9]), the “Max TGI (%)” value is 32% and the “Toxicity (body weight reduction, mice out of 7)” value is 0/7. For the same molecule, in series [5], the “C-max (oral)” value was 0.43 µM, the “F on AUC” value was found to be 24%, the Vd stood at 2.78 L/kg and the clearance stood at 59.5 mL/min/kg. In series [5], the AUC is 1.48 µM·h and the half-life was 110 min. Further, the IC50 in series [6] was found to be 380 nM.
Molecule `NC(=O)c1cc(F)cc2c1C(=O)N(C1CCN(C3CCC(F)(F)CC3)CC1)C2` [Compound 99, 2-[1-(4,4-Difluorocyclohexyl)-piperidin-4-yl]-6-fluoro-3-oxo-2,3-dihydro-1H-isoindole-4-carboxamide] came in with a DC50 in series [4] of 1580 nM. Besides, in series [7] (setting [10]), the “Max TGI (%)” value came out at 55% and the “Toxicity (body weight reduction, mice out of 7)” value was 0/7. In series [5], this molecule yielded an AUC of 19.6 µM·h.

The values above are taken from US8877944B2, “3-oxo-2,3-dihydro-1H-isoindole-4-carboxamides as PARP inhibitors” (Nerviano Medical Sciences S.R.L., priority 2009, dated 2014).
